Assay results reported in ChEMBL document CHEMBL1201862, “PubChem BioAssay data set” (2004).
Where “and” joins values, the source holds several entries; their conditions need not be identical. Identical values can stand only once.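 Where inhibition never reached the appropriate level, the endpoint shown equals the highest concentration tested. Otherwise, values were interpolated linearly from a five-concentration, 48-hour dose response in 96-well plates. GI50 = concentration required for 50% inhibition of growth.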 Calls of active or inactive are those of the source. No stated cut-off is given here; in the data, active = GI50 up to about 1.1 µM and inactive = higher.

How the values were obtained:
Assay in all cases: DTP human tumour cell line panel, 48 h
SK-MEL-2 = tested on: SK-MEL-2
HT-29 = tested on: HT-29
A549 = tested on: A549
Malme-3M = tested on: Malme-3M
T47D = tested on: T47D
EKVX = tested on: EKVX
TK-10 = tested on: TK-10
HCT-15 = tested on: HCT-15
786-0 = tested on: 786-0
SF-295 = tested on: SF-295
HCC 2998 = tested on: HCC 2998
NCI-H460 = tested on: NCI-H460
SF-268 = tested on: SF-268
IGROV-1 = tested on: IGROV-1
LOX IMVI = tested on: LOX IMVI
CCRF-CEM = tested on: CCRF-CEM
U-251 = tested on: U-251
MDA-MB-231 = tested on: MDA-MB-231
OVCAR-5 = tested on: OVCAR-5
MOLT-4 = tested on: MOLT-4
SK-MEL-5 = tested on: SK-MEL-5
MDA-MB-435 = tested on: MDA-MB-435
OVCAR-4 = tested on: OVCAR-4
OVCAR-8 = tested on: OVCAR-8
ACHN = tested on: ACHN
NCI/ADR-RES = tested on: NCI/ADR-RES
HOP-92 = tested on: HOP-92
UACC-62 = tested on: UACC-62
Hs-578T = tested on: Hs-578T
MCF7 = tested on: MCF7
A498 = tested on: A498
PC-3 = tested on: PC-3
NCI-H522 = tested on: NCI-H522
CAKI-1 = tested on: CAKI-1
BT-549 = tested on: BT-549
HCT-116 = tested on: HCT-116
KM12 = tested on: KM12
HOP-62 = tested on: HOP-62
SK-OV-3 = tested on: SK-OV-3
OVCAR-3 = tested on: OVCAR-3
UACC-257 = tested on: UACC-257
M14 = tested on: M14
K562 = tested on: K562
SR = tested on: SR
NCI-H226 = tested on: NCI-H226
SNB-19 = tested on: SNB-19
SK-MEL-28 = tested on: SK-MEL-28
UO-31 = tested on: UO-31
NCI-H23 = tested on: NCI-H23
SF-539 = tested on: SF-539
SNB-75 = tested on: SNB-75
RXF 393 = tested on: RXF 393
SW-620 = tested on: SW-620
SN12C = tested on: SN12C
RPMI-8226 = tested on: RPMI-8226
HL-60 = tested on: HL-60
COLO 205 = tested on: COLO 205
DU-145 = tested on: DU-145

`COC(=O)C(C(=O)C(=O)Nc1c(C)cccc1C(C)(C)C)c1nc2ccc(Cl)cc2nc1O` (stereo not given) was tested, and the GI50 (SK-MEL-2) was > 100 µM (inactive), the GI50 (HT-29) was > 100 µM (inactive) and the GI50 (A549) was > 100 µM (inactive). The GI50 (Malme-3M) was > 100 µM (inactive), the GI50 (T47D) was > 100 µM (inactive) and the GI50 (EKVX) was 49.8 µM (inactive). For the same molecule, the GI50 (TK-10) was > 100 µM (inactive), the GI50 (HCT-15) was over 100 µM and the GI50 (786-0) was > 100 µM (inactive). The GI50 (SF-295) was > 100 µM (inactive), the GI50 (HCC 2998) was > 100 µM (inactive) and the GI50 (NCI-H460) was > 100 µM (inactive). The GI50 (SF-268) was > 100 µM (inactive), the GI50 (IGROV-1) was 25.8 µM (inactive) and the GI50 (LOX IMVI) was > 100 µM (inactive). For the same molecule, the GI50 (CCRF-CEM) was > 100 µM (inactive), the GI50 (U-251) was > 100 µM (inactive) and the GI50 (MDA-MB-231) was > 100 µM (inactive). The GI50 (OVCAR-5) was > 100 µM (inactive), the GI50 (MOLT-4) was > 100 µM (inactive) and the GI50 (SK-MEL-5) was > 100 µM (inactive). For the same molecule, the GI50 (MDA-MB-435) was > 100 µM (inactive), the GI50 (OVCAR-4) was > 100 µM (inactive) and the GI50 (OVCAR-8) was > 100 µM (inactive). The GI50 (ACHN) was > 100 µM (inactive), the GI50 (NCI/ADR-RES) was > 100 µM (inactive) and the GI50 (HOP-92) was > 100 µM (inactive). For the same molecule, the GI50 (UACC-62) was > 100 µM (inactive), the GI50 (Hs-578T) was > 100 µM (inactive) and the GI50 (MCF7) was > 100 µM (inactive). For the same molecule, the GI50 (A498) was > 100 µM (inactive), the GI50 (PC-3) was > 100 µM (inactive) and the GI50 (NCI-H522) was 94.2 µM (inactive). The GI50 (CAKI-1) was > 100 µM (inactive), the GI50 (BT-549) was > 100 µM (inactive) and the GI50 (HCT-116) was > 100 µM (inactive). For the same molecule, the GI50 (KM12) was > 100 µM (inactive), the GI50 (HOP-62) was > 100 µM (inactive) and the GI50 (SK-OV-3) was > 100 µM (inactive). For the same molecule, the GI50 (OVCAR-3) was > 100 µM (inactive), the GI50 (UACC-257) was > 100 µM (inactive) and the GI50 (M14) was > 100 µM (inactive). The GI50 (K562) was > 100 µM (inactive), the GI50 (SR) was > 100 µM (inactive) and the GI50 (NCI-H226) was > 100 µM (inactive). For the same molecule, the GI50 (SNB-19) was 86.5 µM (inactive), the GI50 (SK-MEL-28) was > 100 µM (inactive) and the GI50 (UO-31) was > 100 µM (inactive). The GI50 (NCI-H23) was > 100 µM (inactive), the GI50 (SF-539) was > 100 µM (inactive) and the GI50 (SNB-75) was > 100 µM (inactive). The GI50 (RXF 393) was > 100 µM (inactive), the GI50 (SW-620) was > 100 µM (inactive) and the GI50 (SN12C) was > 100 µM (inactive). For the same molecule, the GI50 (RPMI-8226) was > 100 µM (inactive).

With `CCOC(=O)c1c(-c2ccc(OC)c(O)c2)c(C#N)c(=S)n(C2OC(COC(C)=O)C(OC(C)=O)C(OC(C)=O)C2OC(C)=O)c1-c1ccccc1` (stereo not given) the GI50 (A549) was 51.9 µM (inactive), the GI50 (Malme-3M) was 32.4 µM (inactive) and the GI50 (SF-295) was 52.8 µM (inactive). The GI50 (NCI-H460) was 67.1 µM (inactive) and 34 µM (inactive), the GI50 (U-251) was 90.4 µM (inactive) and the GI50 (OVCAR-5) was > 100 µM (inactive). The GI50 (OVCAR-8) was > 100 µM (inactive), the GI50 (A498) was > 100 µM (inactive) and the GI50 (NCI-H522) was 21.4 µM (inactive). The GI50 (BT-549) was 28.8 µM (inactive), the GI50 (SR) was > 100 µM (inactive) and 60.3 µM (inactive) and the GI50 (NCI-H226) was > 100 µM (inactive). For the same molecule, the GI50 (SNB-19) was > 100 µM (inactive) and 83.2 µM (inactive), the GI50 (RXF 393) was 50.1 µM (inactive) and the GI50 (SW-620) was 59.7 µM (inactive).

`CC(=O)OC12C3C4C1C1C2C3C41OC(C)=O` (stereo not given) was tested, and the GI50 (SK-MEL-2) was > 100 µM (inactive), the GI50 (HL-60) was > 100 µM (inactive) and the GI50 (HT-29) was > 100 µM (inactive). For the same molecule, the GI50 (A549) was > 100 µM (inactive), the GI50 (T47D) was > 100 µM (inactive) and the GI50 (EKVX) was > 100 µM (inactive). The GI50 (TK-10) was > 100 µM (inactive), the GI50 (HCT-15) was over 100 µM and the GI50 (786-0) was > 100 µM (inactive). For the same molecule, the GI50 (SF-295) was > 100 µM (inactive), the GI50 (HCC 2998) was > 100 µM (inactive) and the GI50 (NCI-H460) was > 100 µM (inactive). For the same molecule, the GI50 (SF-268) was > 100 µM (inactive), the GI50 (IGROV-1) was > 100 µM (inactive) and the GI50 (LOX IMVI) was > 100 µM (inactive). For the same molecule, the GI50 (CCRF-CEM) was > 100 µM (inactive), the GI50 (U-251) was > 100 µM (inactive) and the GI50 (MDA-MB-231) was > 100 µM (inactive). For the same molecule, the GI50 (OVCAR-5) was > 100 µM (inactive), the GI50 (MOLT-4) was > 100 µM (inactive) and the GI50 (SK-MEL-5) was > 100 µM (inactive). The GI50 (MDA-MB-435) was > 100 µM (inactive), the GI50 (OVCAR-4) was > 100 µM (inactive) and the GI50 (OVCAR-8) was > 100 µM (inactive). The GI50 (ACHN) was > 100 µM (inactive), the GI50 (NCI/ADR-RES) was > 100 µM (inactive) and the GI50 (HOP-92) was > 100 µM (inactive). The GI50 (UACC-62) was > 100 µM (inactive), the GI50 (MCF7) was > 100 µM (inactive) and the GI50 (A498) was > 100 µM (inactive). For the same molecule, the GI50 (PC-3) was > 100 µM (inactive), the GI50 (NCI-H522) was > 100 µM (inactive) and the GI50 (CAKI-1) was > 100 µM (inactive). For the same molecule, the GI50 (BT-549) was > 100 µM (inactive), the GI50 (HCT-116) was > 100 µM (inactive) and the GI50 (KM12) was > 100 µM (inactive). The GI50 (HOP-62) was > 100 µM (inactive), the GI50 (SK-OV-3) was > 100 µM (inactive) and the GI50 (OVCAR-3) was > 100 µM (inactive). The GI50 (UACC-257) was > 100 µM (inactive), the GI50 (M14) was > 100 µM (inactive) and the GI50 (COLO 205) was > 100 µM (inactive). The GI50 (K562) was > 100 µM (inactive), the GI50 (SR) was > 100 µM (inactive) and the GI50 (NCI-H226) was > 100 µM (inactive). For the same molecule, the GI50 (SK-MEL-28) was > 100 µM (inactive), the GI50 (UO-31) was > 100 µM (inactive) and the GI50 (NCI-H23) was > 100 µM (inactive). For the same molecule, the GI50 (SF-539) was > 100 µM (inactive), the GI50 (DU-145) was > 100 µM (inactive) and the GI50 (SNB-75) was > 100 µM (inactive). For the same molecule, the GI50 (RXF 393) was > 100 µM (inactive), the GI50 (SW-620) was > 100 µM (inactive) and the GI50 (SN12C) was > 100 µM (inactive). For the same molecule, the GI50 (RPMI-8226) was > 100 µM (inactive).
